Experimental data as given in US5179117A, “Antihypercholesterolemic 2-substituted imidazoles” (Du Pont Merck Pharmaceutical Company, priority 1991, dated 1993).
Structures can show the parent of a compound that is named as a salt.

Molecular target: T1, acyl-CoA: cholesterol acyltransferase (ACAT) (Mus musculus, UniProt Q61263)
T1 construct: endogenous in cells; host or cells: J774.A1 murine macrophage-like cells
T1 sequence (Q61263 1-540): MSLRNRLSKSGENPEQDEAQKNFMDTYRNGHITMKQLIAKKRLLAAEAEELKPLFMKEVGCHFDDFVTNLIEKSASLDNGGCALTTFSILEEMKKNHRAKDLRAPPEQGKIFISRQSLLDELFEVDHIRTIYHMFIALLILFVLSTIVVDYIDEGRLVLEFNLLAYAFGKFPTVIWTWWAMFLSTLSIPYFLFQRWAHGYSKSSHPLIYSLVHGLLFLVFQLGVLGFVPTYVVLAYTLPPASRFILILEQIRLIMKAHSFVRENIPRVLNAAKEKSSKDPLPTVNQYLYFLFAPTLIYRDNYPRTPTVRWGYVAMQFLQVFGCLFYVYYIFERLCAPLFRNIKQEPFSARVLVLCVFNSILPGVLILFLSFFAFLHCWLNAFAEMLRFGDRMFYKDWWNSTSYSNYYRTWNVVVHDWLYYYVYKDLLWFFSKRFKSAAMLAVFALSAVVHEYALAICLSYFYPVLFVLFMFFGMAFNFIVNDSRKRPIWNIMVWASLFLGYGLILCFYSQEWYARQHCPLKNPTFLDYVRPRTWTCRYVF
Assay: Assay of the inhibition of cholesterol esterification in mammalian cells (J774.A1 macrophages, 14C-oleic acid incorporation into cholesteryl ester, ac-LDL loaded)
Assay type: cell-based
Conditions: murine macrophage-like cell line J774.A1, ac-LDL loaded, 14C-oleic acid pulse; read-out: Cholesterol Esterification IC50 (concentration at which ACAT activity is inhibited by 50%)
Protocol: The esterification of cholesterol was determined in the murine macrophage-like cell line J774.A1. Cells were seeded in 35 mm wells at a density of 300,000 cells per well in 2 mls of Dulbecco's Eagle Medium (DMEM) supplemented with 10% fetal bovine serum (FBS). Cells were incubated at 37° C. in an atmosphere of 5% CO2 and 93% humidity. After 24 hours the media was changed to 0.68 mls 10% FBS-DMEM containing 34 μg of acetylated human low density lipoprotein (ac-LDL) to increase the intracellular concentration of cholesterol and promote esterification. At 41 hours, various inhibitors were added to the cells in DMSO (10 μl/ml maximum). At 43 hours, the cells were pulsed with 0.1 mM ^14 C-oleic acid (10,000 dpm/nmol) complexed with BSA (bovine serum albumin) to follow cholesterol ester formation. The experiment was terminated at 45 hours by washing the monolayers 3 time with 3 ml of Tris-buffered saline at 4° C. The lipids were extracted by incubating the monolayers with 1.5 ml of hexane: isopropanol (3:2, v/v) for 30 min. under gentle agitation. During this period, 10,000 dpm ^3 H-cholesteryl linoleate and 10 μg of cholesteryl oleate were added as an internal standard and carrier respectively. The organic solvent was removed and the cells were washed with an additional 1.0 ml of hexane: isopropanol which was combined with the original extract. The cells were allowed to dry overnight, digested with 1.5 ml of 0.2N sodium hydroxide for 1 hour and an aliquot of the solubilized protein used for protein determination using the Lowry method. The organic extract was taken to dryness, the residue resuspended in 100 μl of chloroform and the lipids separated on silica gel impregnated glass fiber plates using a hexane: diethylether: acetic acid (170:30:1, v/v/v) solvent system. Individual lipids were visualized with iodine and the cholesteryl ester spot cut out and transferred to scintillation vials to determine the amount of radioactivity. The conversion of oleic acid to cholesteryl ester in the control averaged […]/hour/mg protein and was increased upon the addition of ac-LDL to about […]/hour/mg protein. The inhibition of esterification by the compounds is shown in Table 2; the data are expressed as the concentration at which ACAT activity is inhibited by 50% (IC50).

SMILES | IC50 [nM]
COC(=O)[C@H](CCCCN)NC(=O)CCCSc1nc(-c2ccc(OC)cc2)c(-c2ccc(OC)cc2)[nH]1 [Example 2, N2-[4-[4,5-bis(4-methoxyphenyl)-1H-imidazol-2-ylthio]-1-oxobutyl]-L-lysine, methyl ester hydrobromide] | 100000
COC(=O)[C@H](CCCCNC(C)=O)NC(=O)CCCSc1nc(-c2ccc(OC)cc2)c(-c2ccc(OC)cc2)n1C(C)=O [Example 5, N6-acetyl-N2-[4-[1-acetyl-4,5-bis(4-methoxyphenyl)-1H-imidazol-2-ylthio]-1-oxobutyl]-L-lysine, methyl ester] | 7150
COC(=O)[C@H](CCCCNC(C)=O)NC(=O)CCCSc1nc(-c2ccc(OC)cc2)c(-c2ccc(OC)cc2)[nH]1 [Example 6, N6-acetyl-N2-[4-[4,5-bis(4-methoxyphenyl)-1H-imidazol-2-ylthio]-1-oxobutyl]-L-lysine, methyl ester] | 10300
COc1ccc(-c2nc(SCCCC(=O)N[C@@H](CCCCNC(=O)OCc3ccccc3)C(=O)NC(C)C)[nH]c2-c2ccc(OC)cc2)cc1 [Example 7, phenylmethyl, (S)-[5-[[4-[4,5-bis(4-methoxyphenyl)-1H-imidazol-2-ylthio]-1-oxobutyl]amino]-6-[(1-methylethyl)amino]-6-oxohexyl]carbamate] | 1100
CCCCCC(=CCCCCSc1nc(-c2ccccc2)c(-c2ccccc2)[nH]1)C(=O)OCC [Example 10, ethyl, 7-(4,5-diphenyl-1H-imidazol-2-ylthio)-2-pentyl-2-heptenoate] | 4620
CCCCCC(=CCCCCSc1nc(-c2ccccc2)c(-c2ccccc2)[nH]1)C(=O)O [Example 11, 7-(4,5-diphenyl-1H-imidazol-2-ylthio)-2-pentyl-2-heptenoic acid] | 13400

These reach a lower IC50. Values come first.

IC50 [nM] | SMILES
37 | COC(=O)[C@H](CCCCNC(=O)OCc1ccccc1)NC(=O)CCCSc1nc(-c2ccc(OC)cc2)c(-c2ccc(OC)cc2)[nH]1 [Example 1, N2-[4-[4,5-bis(4-methoxyphenyl)-1H-imidazol-2-ylthio]-1-oxobutyl]-N6-[(phenylmethoxy)carbonyl]-L-lysine, methyl ester]
386 | COC(=O)[C@H](CCCCNC(=O)C12CC3CC(CC(C3)C1)C2)NC(=O)CCCSc1nc(-c2ccc(OC)cc2)c(-c2ccc(OC)cc2)[nH]1 [Example 3, N6-(1-adamantylcarbonyl)-N2-[4-[4,5-bis(4-methoxyphenyl)-1H-imidazol-2-ylthio]-1-oxobutyl]-L-lysine, methyl ester]
601 | COC(=O)[C@H](CCCCNC(=O)NCc1ccccc1)NC(=O)CCCSc1nc(-c2ccc(OC)cc2)c(-c2ccc(OC)cc2)[nH]1 [Example 4, N2-[4-[4,5-bis(4-methoxyphenyl)-1H-imidazol-2-ylthio]-1-oxobutyl]-N6-[(phenylmethyl)-aminocarbonyl]-L-lysine, methyl ester]
4.9 | COC(=O)[C@H](CCCCNC(=O)OCc1ccccc1)NC(=O)CCCSc1nc(-c2ccc(N(C)C)cc2)c(-c2ccc(N(C)C)cc2)[nH]1 [Example 8, N2-[4-[4,5-bis[4-(dimethylamino)phenyl] -1H-imidazol-2-ylthio]-1-oxobutyl]-N6-[(phenylmethoxy)carbonyl]-L-lysine, methylester]
650 | CCCC[C@H](NC(=O)CCCSc1nc(-c2ccc(OC)cc2)c(-c2ccc(OC)cc2)[nH]1)C(=O)OC [Example 9, N-[4-[4,5-bis(4-methoxyphenyl)-1H-imidazol-2-ylthio]-1-oxobutyl]-norleucine, methyl ester]
